Test results published in patent publication US8933039B2 (NPS Pharmaceuticals, Inc., priority 1995, dated 2015).
Non-standard residues stand in square brackets, D forms with d. Residues, ends and D or L forms follow the SMILES beside them. Met(O) = CS(=O)CC[C@H](N)C(=O)O; Nle = CCCC[C@H](N)C(=O)O

Tested on: CD1 mice
Assay: Intestinotrophic activity assessment: small bowel weight in mice
Type: in vivo
Settings: for % Activity (small bowel inducing activity relative to native rat GLP-2(1-33) = 100%): mice, as Example 4; for % Increase in small bowel weight: CD1 mice, 2.5 μg peptide s.c. b.i.d. in PBS, sacrificed 10 or 14 days, relative to vehicle only
Method: Recipients were CD1 mice obtained from Charles River Laboratory (Ontario, Canada). The CD1 mice were aged-matched females at time of injection (n=3-4 per group), 6 weeks of age, unless otherwise specified. The animals were allowed a minimum of 24 hours to acclimatize to the laboratory facility before the initiation of each experiment. Animals were identified by ear punch. The mice were not restricted by diet or activity during the experiments. The light/dark cycle was 12 hours, between 6 pm to 6 am. Controls were age- and sex-matched (n=3-4) animals. Mice were injected subcutaneously, twice a day (b.i.d.), with 2.5 μg peptide in a total volume of 0.5 cc of PBS and were monitored daily in the laboratory facility. Animals were sacrificed 10 or 14 days after injection, and were fasted at least 20 hours before sacrifice.
The mice were anaesthetised with CO2 and exsanguinated by cardiac puncture. Blood was collected in 75 μl of TED (Trasysol; EDTA (5000 KIU/ml: 1.2 mg/ml; Diprotin-A), and the blood was centrifuged at 14 k×g for 5 minutes and the plasma was stored at −70 prior to analysis. The small bowel was removed from the peritoneal cavity, from pylorus to cecum, cleaned weighed and measured. For comparative purpose, sections from each animal were obtained from the identical anatomical position. Fragments each measuring 1.5-2.0 cm in length were obtained 8±2 cm, 18±2 cm, 32±2 cm from pylorus for histomorphometry representing proximal jejunum, distal jejunum and distal ileum. Each small bowel fragment was opened longitudinally on its antimesenteric border in a tissue block and then placed on 10% formalin (vol./vol.) overnight, then transferred to 70% […].
Percentage change in small bowel weight was calculated by dividing the mean change in bowel weight of analog treated mice, relative to mice treated with vehicle only, by the mean bowel weight of mice treated with vehicle only, and multiplying this figure by 100.
Experiments assessing the small bowel inducing activity of various analogs was repeated as described above for Example 4. In these experiments, the small bowel inducing activity of each analog in mice was calculated relative to that of native rat GLP-2(1-33) (expressed as 100% of activity). Resistance of analogs to DPP-IV cleavage was performed as described above in Example 3.

Molecule | % Activity (small bowel inducing activity relative to native rat GLP-2(1-33) = 100%) [%] | % Increase in small bowel weight [%] | % Increase in small bowel weight (listed as [Leu^10]rGLP-2) [%]
CC[C@H](C)[C@H](NC(=O)[C@H](Cc1ccccc1)NC(=O)[C@H](CC(=O)O)NC(=O)[C@H](CCCNC(=N)N)NC(=O)[C@H](C)NC(=O)[C@H](C)NC(=O)[C@H](CC(C)C)NC(=O)[C@H](CC(N)=O)NC(=O)[C@H](CC(=O)O)NC(=O)[C@H](CC(C)C)NC(=O)[C@@H](NC(=O)[C@@H](NC(=O)[C@H](CC(N)=O)NC(=O)[C@H](CCSC)NC(=O)[C@H](CCC(=O)O)NC(=O)[C@H](CC(=O)O)NC(=O)[C@H](CO)NC(=O)[C@H](Cc1ccccc1)NC(=O)[C@H](CO)NC(=O)CNC(=O)[C@H](CC(=O)O)NC(=O)[C@H](C)NC(=O)[C@@H](N)Cc1c[nH]cn1)[C@@H](C)O)[C@@H](C)CC)C(=O)N[C@@H](CC(N)=O)C(=O)N[C@@H](Cc1c[nH]c2ccccc12)C(=O)N[C@@H](CC(C)C)C(=O)N[C@H](C(=O)N[C@@H](CCC(N)=O)C(=O)N[C@H](C(=O)N[C@@H](CCCCN)C(=O)N[C@H](C(=O)N[C@H](C(=O)N[C@@H](CC(=O)O)C(=O)NCCCCNC(=N)N)[C@@H](C)O)[C@@H](C)CC)[C@@H](C)O)[C@@H](C)CC [[Agm34]hGLP-2(1-34)] | 97 | – | –
CC[C@H](C)[C@H](NC(=O)[C@H](Cc1ccccc1)NC(=O)[C@H](CC(=O)O)NC(=O)[C@H](CCCNC(=N)N)NC(=O)[C@@H](NC(=O)[C@H](C)NC(=O)[C@H](CC(C)C)NC(=O)[C@H](CC(N)=O)NC(=O)[C@H](CC(=O)O)NC(=O)[C@H](CC(C)C)NC(=O)[C@@H](NC(=O)[C@@H](NC(=O)[C@H](CC(N)=O)NC(=O)[C@H](CC[S+](C)[O-])NC(=O)[C@H](CCC(=O)O)NC(=O)[C@H](CC(=O)O)NC(=O)[C@H](CO)NC(=O)[C@H](Cc1ccccc1)NC(=O)[C@H](CO)NC(=O)CNC(=O)[C@H](CC(=O)O)NC(=O)[C@H](C)NC(=O)[C@@H](N)Cc1c[nH]cn1)[C@@H](C)O)[C@@H](C)CC)[C@@H](C)O)C(=O)N[C@@H](CC(N)=O)C(=O)N[C@@H](Cc1c[nH]c2ccccc12)C(=O)N[C@@H](CC(C)C)C(=O)N[C@H](C(=O)N[C@@H](CCC(N)=O)C(=O)N[C@H](C(=O)N[C@@H](CCCCN)C(=O)N[C@H](C(=O)N[C@H](C(=O)N[C@@H](CC(=O)O)C(=O)O)[C@@H](C)O)[C@@H](C)CC)[C@@H](C)O)[C@@H](C)CC (stereo partly shown) [[Met(O)10]ratGLP-2(1-33)] (H-HADGSFSDE[Met(O)]NTILDNLATRDFINWLIQTKITD-OH) | 18 | – | –
CCCC[C@H](NC(=O)[C@H](CCC(=O)O)NC(=O)[C@H](CC(=O)O)NC(=O)[C@H](CO)NC(=O)[C@H](Cc1ccccc1)NC(=O)[C@H](CO)NC(=O)CNC(=O)[C@H](CC(=O)O)NC(=O)[C@H](C)NC(=O)[C@@H](N)Cc1c[nH]cn1)C(=O)N[C@@H](CC(N)=O)C(=O)N[C@H](C(=O)N[C@H](C(=O)N[C@@H](CC(C)C)C(=O)N[C@@H](CC(=O)O)C(=O)N[C@@H](CC(N)=O)C(=O)N[C@@H](CC(C)C)C(=O)N[C@@H](C)C(=O)N[C@H](C(=O)N[C@@H](CCCNC(=N)N)C(=O)N[C@@H](CC(=O)O)C(=O)N[C@@H](Cc1ccccc1)C(=O)N[C@H](C(=O)N[C@@H](CC(N)=O)C(=O)N[C@@H](Cc1c[nH]c2ccccc12)C(=O)N[C@@H](CC(C)C)C(=O)N[C@H](C(=O)N[C@@H](CCC(N)=O)C(=O)N[C@H](C(=O)N[C@@H](CCCCN)C(=O)N[C@H](C(=O)N[C@H](C(=O)N[C@@H](CC(=O)O)C(=O)O)[C@@H](C)O)[C@@H](C)CC)[C@@H](C)O)[C@@H](C)CC)[C@@H](C)CC)[C@@H](C)O)[C@@H](C)CC)[C@@H](C)O [[Nlel0]ratGLP-2(1-33), [Nle^10]ratGLP-2(1-33)] (H-HADGSFSDE[Nle]NTILDNLATRDFINWLIQTKITD-OH) | 100 | 52 | –
CC[C@H](C)[C@H](NC(=O)[C@H](Cc1ccccc1)NC(=O)[C@H](CC(=O)O)NC(=O)[C@H](CCCNC(=N)N)NC(=O)[C@H](C)NC(=O)[C@H](C)NC(=O)[C@H](CC(C)C)NC(=O)[C@H](CC(N)=O)NC(=O)[C@H](CC(=O)O)NC(=O)[C@H](CC(C)C)NC(=O)[C@@H](NC(=O)[C@@H](NC(=O)[C@H](CC(N)=O)NC(=O)[C@H](CCSC)NC(=O)[C@H](CCC(=O)O)NC(=O)[C@H](CC(=O)O)NC(=O)[C@H](CO)NC(=O)[C@H](Cc1ccccc1)NC(=O)[C@H](CO)NC(=O)CNC(=O)[C@H](CC(=O)O)NC(=O)[C@H](C)NC(=O)[C@@H](N)Cc1c[nH]cn1)[C@@H](C)O)[C@@H](C)CC)C(=O)N[C@@H](CC(N)=O)C(=O)N[C@@H](Cc1c[nH]c2ccccc12)C(=O)N[C@@H](CC(C)C)C(=O)N[C@H](C(=O)N[C@@H](CCC(N)=O)C(=O)N[C@H](C(=O)N[C@@H](CCCCN)C(=O)N[C@H](C(=O)N[C@H](C(=O)N[C@@H](CC(=O)O)C(=O)N[C@@H](Cc1ccc(O)cc1)C(=O)O)[C@@H](C)O)[C@@H](C)CC)[C@@H](C)O)[C@@H](C)CC [[Tyr34]hGLP-2(1-34)] | 135 | – | –
H-GSFSDEMNTILDNLATRDFINWLIQTKITD-OH [ratGLP-2(4-33)] | 6 | – | –
H-HADGSFSDELNTILDNLATRDFINWLIQTKITD-OH [[Leu10]ratGLP-2(1-33)] | 51 | – | 26
H-HADGSFSDEMNTILDNLAAQDFINWLIQTKITD-OH [[Gln20]hGLP-2(1-33)] | 80 | – | –
H-HADGSFSDEMNTILDNLAARDFINWLIQTKITN-OH [[Asn33]hGLP-2(1-33)] | 91 | – | –
H-HADGSFSDEMNTILDNLAARDFVQWLIQTKITD-OH [[Val23,Gln24]hGLP-2(1-33)] | 82 | 36 | –
H-HADGSFSDEMNTILDNLATKDFINWLIQTKITD-OH [[Lys20]ratGLP-2(1-33)] | 120 | 62 | –
H-HADGSFSDEMNTILDNLATRDFINW-OH [ratGLP-2(1-25)] | 8 | – | –
H-HADGSFSDEMNTILDNLATRDFINWLIQTK-OH [ratGLP-2(1-30)] | 23 | – | –
H-HADGSFSDEMNTILDNLATRDFINWLIQTKITD-NH2 [ratGLP-2(1-33)amide] | 56 | 23 | –
H-HADGSFSDEMNTILDSRRARDFINWLIQTKITD-OH [[Ser16, Arg17, Arg18]hGLP-2(1-33)] | 59 | – | –
H-HADGSFSDYSKYLDNLAARDFINWLIQTKITD-OH [[Tyr9, Ser10, Lys11, Tyr12, des-Ile13]hGLP-2(1-33)] | 94 | 41 | –
H-HADGTFSDEMNTILDNLAARDFINWLIQTKITD-OH [[Thr5]hGLP-2(1-33)] | 73 | – | –
H-HGDGSASDEMNTILDNLAARDFINWLIQTKITD-OH [[Gly2,Ala6]hGLP-2(1-33)] | 67 | 18 | –
H-HGDGSFADEMNTILDNLAARDFINWLIQTKITD-OH [[Gly2,Ala7]hGLP-2(1-33)] | 82 | 22 | –
H-HGDGSFSAEMNTILDNLAARDFINWLIQTKITD-OH [[Gly2,Ala8]hGLP-2(1-33)] | 120 | 33 | –
